In patent US12440496B2, “Natriuretic peptide receptor a agonists useful for the treatment of cardiometabolic diseases, kidney disease and diabetes” (Merck Sharp & Dohme LLC, priority 2019, dated 2025):

Biological target: T1, hNPRA (Homo sapiens, UniProt P16066)
T1 construct: expressed in transfected cells
T1 sequence (P16066 33-1061): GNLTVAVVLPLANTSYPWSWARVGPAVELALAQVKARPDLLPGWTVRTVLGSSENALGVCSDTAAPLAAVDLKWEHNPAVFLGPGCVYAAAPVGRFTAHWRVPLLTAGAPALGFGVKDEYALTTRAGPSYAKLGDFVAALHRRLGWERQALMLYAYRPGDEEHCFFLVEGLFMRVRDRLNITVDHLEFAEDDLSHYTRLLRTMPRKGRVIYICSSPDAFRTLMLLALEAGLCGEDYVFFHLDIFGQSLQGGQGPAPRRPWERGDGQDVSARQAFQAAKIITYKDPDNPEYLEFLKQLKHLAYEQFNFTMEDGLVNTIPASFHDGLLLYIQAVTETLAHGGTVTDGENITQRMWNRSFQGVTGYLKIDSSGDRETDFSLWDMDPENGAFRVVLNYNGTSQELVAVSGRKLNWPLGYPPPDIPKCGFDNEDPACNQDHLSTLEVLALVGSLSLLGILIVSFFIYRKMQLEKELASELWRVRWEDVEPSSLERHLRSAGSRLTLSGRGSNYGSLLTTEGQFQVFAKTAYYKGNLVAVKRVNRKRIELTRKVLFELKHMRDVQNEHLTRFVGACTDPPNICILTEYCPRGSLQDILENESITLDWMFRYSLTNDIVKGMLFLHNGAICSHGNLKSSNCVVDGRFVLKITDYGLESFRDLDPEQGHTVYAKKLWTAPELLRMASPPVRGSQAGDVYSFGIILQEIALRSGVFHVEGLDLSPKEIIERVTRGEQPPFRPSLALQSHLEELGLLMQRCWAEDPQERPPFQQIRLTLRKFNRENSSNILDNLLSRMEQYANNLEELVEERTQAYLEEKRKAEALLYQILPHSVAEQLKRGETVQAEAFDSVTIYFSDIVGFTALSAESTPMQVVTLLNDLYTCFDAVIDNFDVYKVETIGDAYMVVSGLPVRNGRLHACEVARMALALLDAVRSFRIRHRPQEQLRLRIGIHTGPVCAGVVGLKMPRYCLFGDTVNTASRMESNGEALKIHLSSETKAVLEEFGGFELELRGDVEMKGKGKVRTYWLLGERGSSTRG
Experiment: NPRA Functional Cell Assay (cGMP HTRF, NPRA HEK JumpIn stable cells)
Type: cell-based
Details: cGMP production, 1 hour at 37° C., 10-point dose response
Procedure, shortened: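 cGMP HTRF read-out after 1 hour compound treatment at 37° C. of human NPRA-expressing HEK JumpIn cells, 1500 cells/well, in buffer with phosphodiesterase inhibitors IBMX and RO20 (100 uM each). Signal converted to [cGMP] by calibration curve; EC50s fitted by 4-parameter logistic; 50 nM h-ANP as positive response.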

SMILES	EC50
CC(C)(C)[C@H]1CCc2nc3sc(C(=O)N[C@H](CCN4CCC(O)CC4)c4ccc(N5CC(=O)NC5=O)nc4)nc3cc2C1 [Example 220, (S)-7-(tert-butyl)-N-((R)-1-(6-(2,4-dioxoimidazolidin-1-yl)pyridin-3-yl)-3-(4-hydroxypiperidin-1-yl)propyl)-5,6,7,8-tetrahydrothiazolo[5,4-b]quinoline-2-carboxamide]	277 nM
CC(C)(C)[C@H]1CCc2nc3sc(C(=O)N[C@H](CCN4C[C@@H](O)[C@@H](O)C4)c4ccc(-c5ccc(=O)[nH]c5)cc4)cc3cc2C1 (racemic) [Example 61, rac-(6S)-6-tert-butyl-N-[rac-(1R)-1-[4-(6-oxo-1H-pyridin-3-yl)phenyl]-3-[rac-(3S,4R)-3,4-dihydroxypyrrolidin-1-ium-1-yl]propyl]-5,6,7,8-tetrahydrothieno[2,3-b]quinoline-2-carboxamide;formate]	1040 nM
CC(C)(C)[C@H]1CCc2nc3sc(C(=O)N[C@H](CCN4CCC(O)CC4)c4ccc(-c5ccc(O)cc5)cc4)nc3cc2C1 (racemic) [Example 129, rac-(7S)-7-tert-butyl-N-[rac-(1R)-1-[4-(4-hydroxyphenyl)phenyl]-3-(4-hydroxypiperidin-1-ium-1-yl)propyl]-5,6,7,8-tetrahydrothiazolo[5,4-b] quinoline-2-carboxamide; 2,2,2-trifluoroacetate]	1440 nM
CC(C)(C)[C@H]1CCc2nc3sc(C(=O)N[C@H](CCN4CCC(O)C4)c4ccccc4)cc3cc2C1 (stereo partly drawn) [Example 261, (6S)-6-tert-butyl-N-[(1R)-3-(3-hydroxypyrrolidin-1-yl)-1-phenylpropyl]-5,6,7,8-tetrahydrothieno[2,3-b]quinoline-2-carboxamide]	6320 nM
CC(C)(C)[C@H]1CCc2nc3sc(C(=O)N[C@H](CCN4CCC(O)CC4)c4ccc(N5CCOC5=O)nc4)nc3cc2C1 (racemic) [Example 186, rac-(7S)-7-tert-butyl-N-[rac-(1R)-3-(4-hydroxy-1-piperidyl)-1-[6-(2-oxooxazolidin-3-yl)-3-pyridyl]propyl]-5,6,7,8-tetrahydrothiazolo[5,4-b]quinoline-2-carboxamide]	350 nM
CC(C)(C)[C@H]1CCc2nc3sc(C(=O)N[C@H](CCN4CCC(O)CC4)c4cccc(C(=O)N5CC(O)C5)c4)nc3cc2C1 (racemic) [Example 156, rac-(7S)-7-tert-butyl-N-[rac-(1R)-1-[3-(3-hydroxyazetidine-1-carbonyl)phenyl]-3-(4-hydroxy-1-piperidyl)propyl]-5,6,7,8-tetrahydrothiazolo[5,4-b]quinoline-2-carboxamide]	830 nM
CN(C)CC[C@@H](NC(=O)c1cc2cc3c(nc2s1)CC[C@H](C(C)(C)C)C3)c1cccc(NS(C)(=O)=O)c1 (racemic) [Example 9, ammonium; methylsulfonyl-[3-[rac-(1R)-3-(dimethylamino)-1-[rac-(6S)-6-tert-butyl-5,6,7,8-tetrahydrothieno[2,3-b]quinoline-2-carbonyl]amino]propyl]phenyl] azanide]	708 nM
CC(C)(C)[C@H]1CCc2nc3sc(C(=O)N[C@H](CCN4CCC(C#N)CC4)c4ccc(-c5ccc(=O)[nH]c5)cc4)cc3cc2C1 (racemic) [Example 68, rac-(6S)-6-tert-butyl-N-[rac-(1R)-3-(4-cyanopiperidin-1-ium-1-yl)-1-[4-(6-oxo-1H-pyridin-3-yl)phenyl]propyl]-5,6,7,8-tetrahydrothieno[2,3-b]quinoline-2-carboxamide;formate]	1810 nM
CC(C)(C)[C@H]1CCc2nc3sc(C(=O)N[C@H](CCN4CCC(O)CC4)c4ccc(-c5ccnnc5)nc4)nc3cc2C1 [Example 263, (S)-7-(tert-butyl)-N-((R)-3-(4-hydroxypiperidin-1-yl)-1-(6-(pyridazin-4-yl)pyridin-3-yl)propyl)-5,6,7,8-tetrahydrothiazolo[5,4-b]quinoline-2-carboxamide]	129 nM

Now from value to compound:

EC50	SMILES
1440 nM	CC(C)(C)[C@H]1CCc2nc3sc(C(=O)N[C@H](CCN4CCC(O)CC4)c4ccc(-c5ncc(O)cc5F)cc4)nc3cc2C1 (racemic) [Example 181, rac-(7S)-7-tert-butyl-N-[rac-(1R)-1-[4-(3-fluoro-5-hydroxy-2-pyridyl)phenyl]-3-(4-hydroxypiperidin-1-ium-1-yl)propyl]-5,6,7,8-tetrahydrothiazolo[5,4-b]quinoline-2-carboxamide; 2,2,2-trifluoroacetate]
673 nM	CC1(O)CCN(CC[C@@H](NC(=O)c2cc3cc4c(nc3s2)CC[C@H](C(C)(C)C)C4)c2ccc(-c3ccc(=O)[nH]c3)cc2)CC1 (racemic) [Example 45, rac-(6S)-6-tert-butyl-N-[rac-(1R)-3-(4-hydroxy-4-methyl-piperidin-1-ium-1-yl)-1-[4-(6-oxo-1H-pyridin-3-yl)phenyl]propyl]-5,6,7,8-tetrahydrothieno[2,3-b]quinoline-2-carboxamide;formate]
590 nM	CC(C)(C)[C@H]1CCc2nc3sc(C(=O)N[C@H](CCN4CCC(O)CC4)c4ccc(-c5ccc(=O)[nH]c5)cc4)nc3cc2C1 (racemic) [Example 164, rac-(7S)-7-tert-butyl-N-[rac-(1R)-3-(4-hydroxypiperidin-1-ium-1-yl)-1-[4-(6-hydroxy-3-pyridyl)phenyl]propyl]-5,6,7,8-tetrahydrothiazolo[5,4-b]quinoline-2-carboxamide; 2,2,2-trifluoroacetate]
> 2000 nM	CC(C)(C)[C@H]1CCc2nc3sc(C(=O)N[C@H](CCN)c4ccccc4)cc3cc2C1 [Example 229, (S)-N-((R)-3-amino-1-phenylpropyl)-6-(tert-butyl)-5,6,7,8-tetrahydrothieno[2,3-b]quinoline-2-carboxamide]
6320 nM	CC(C)(C)[C@H]1CCc2nc3sc(C(=O)NC(CCN4CCOCC4)c4ccccc4)cc3cc2C1 (stereo partly drawn) [Example 243, (6S)-6-tert-butyl-N-(3-morpholin-4-yl-1-phenylpropyl)-5,6,7,8-tetrahydrothieno[2,3-b]quinoline-2-carboxamide]
834 nM	CC(C)(C)[C@H]1CCc2nc3sc(C(=O)N[C@H](CCN4CCC(F)CC4)c4cccc(NS(C)(=O)=O)c4)cc3cc2C1 (racemic) [Example 14, ammonium; methylsulfonyl-[3-[rac-(1R)-3-(4-fluoro-1-piperidyl)-1-[[rac-(6S)-6-tert-butyl-5,6,7,8-tetrahydrothieno[2,3-b]quinoline-2-carbonyl]amino]propyl]phenyl] azanide]
663 nM	COC[C@@H]1CCCN1CC[C@@H](NC(=O)c1cc2cc3c(nc2s1)CC[C@H](C(C)(C)C)C3)c1ccc(-c2ccc(=O)[nH]c2)cc1 (racemic) [Example 43, rac-(6S)-6-tert-butyl-N-[rac-(1R)-1-[4-(6-oxo-1H-pyridin-3-yl)phenyl]-3-[rac-(2S)-2-(methoxymethyl)pyrrolidin-1-yl]propyl]-5,6,7,8-tetrahydrothieno[2,3-b]quinoline-2-carboxamide]
1820 nM	CC(C)(C)[C@H]1CCc2nc3sc(C(=O)N[C@H](CCN4CCC(CO)C4)c4ccccc4)cc3cc2C1 (stereo partly drawn) [Example 259, (6S)-6-tert-butyl-N-{(1R)-3-[3-(hydroxymethyl)pyrrolidin-1-yl]-1-phenylpropyl}-5,6,7,8-tetrahydrothieno[2,3-b]quinoline-2-carboxamide]
